Experimental data as given in ChEMBL document CHEMBL1146892, “Pyrrolidine bis-cyclic guanidines with antimicrobial activity against drug-resistant Gram-positive pathogens identified from a mixture-based combinatorial library” (2006).
In brackets after ≈: the same amount, converted by molar mass.

Key:
Type in all cases: functional
[1] = test system: Enterococcus faecalis; experiment: Antibacterial activity against vancomycin-resistant Enterococcus faecalis ATCC 51299
[2] = test system: Escherichia coli; experiment: Antibacterial activity against Escherichia coli ATCC 25922
[3] = test system: Staphylococcus aureus; experiment: Antibacterial activity against methicillin-resistant Staphylococcus aureus ATCC 33591

Row | Compound | MBC [1] | MIC [1] | MBC [2] | MIC [2] | MBC [3] | MIC [3]
1 | N=C1N(CCc2cc(C(F)(F)F)cc(C(F)(F)F)c2)[C@@H](CC2CCCCC2)CN1[C@H](Cc1ccc2ccccc2c1)CN1CCCC1CN1C(N)=NC[C@@H]1Cc1ccccc1 (stereo partly specified) | < 2.5 µg/mL | < 2.5 µg/mL | > 10 µg/mL | > 10 µg/mL | < 2.5 µg/mL | < 2.5 µg/mL
2 | C[C@H]1CN=C(N)N1CC1CCCN1C[C@@H](CC1CCCCC1)N1C[C@@H](CC2CCCCC2)N(CCc2cc(C(F)(F)F)cc(C(F)(F)F)c2)C1=N (stereo partly specified) | > 10 µg/mL | < 2.5 µg/mL | 5 µg/mL (≈ 6.89 µM) | 5 µg/mL (≈ 6.89 µM) | 2.5 µg/mL (≈ 3.44 µM) | < 2.5 µg/mL
3 | CC(C)Cc1ccc(C(C)CN2C(=N)N([C@H](Cc3ccc4ccccc4c3)CN3CCCC3CN3C(N)=NC[C@@H]3C)C[C@@H]2CC2CCCCC2)cc1 (stereo partly specified) | 2.5 µg/mL (≈ 3.55 µM) | > 10 µg/mL | > 10 µg/mL | > 10 µg/mL | 2.5 µg/mL (≈ 3.55 µM) | 2.5 µg/mL (≈ 3.55 µM)
4 | CCCC[C@@H]1CN([C@H](Cc2ccc3ccccc3c2)CN2CCCC2CN2C(N)=NC[C@@H]2C)C(=N)N1CCc1cc(C(F)(F)F)cc(C(F)(F)F)c1 (stereo partly specified) | > 10 µg/mL | < 2.5 µg/mL | > 10 µg/mL | > 10 µg/mL | 2.5 µg/mL (≈ 3.43 µM) | < 2.5 µg/mL
5 | CCCC[C@@H]1CN([C@H](Cc2ccc3ccccc3c2)CN2CCCC2CN2C(N)=NC[C@@H]2C)C(=N)N1CC(C)c1ccc(CC(C)C)cc1 (stereo partly specified) | 2 µg/mL (≈ 3.01 µM) | < 2.5 µg/mL | 5 µg/mL (≈ 7.53 µM) | 5 µg/mL (≈ 7.53 µM) | 2.5 µg/mL (≈ 3.77 µM) | 2.5 µg/mL (≈ 3.77 µM)
6 | CC(C)Cc1ccc(C(C)CN2C(=N)N([C@H](Cc3ccc4ccccc4c3)CN3CCCC3CN3C(N)=NC[C@@H]3Cc3ccccc3)C[C@@H]2CC2CCCCC2)cc1 (stereo partly specified) | > 10 µg/mL | < 2.5 µg/mL | > 10 µg/mL | > 10 µg/mL | < 2.5 µg/mL | < 2.5 µg/mL
7 | CCCC[C@@H]1CN([C@H](CC2CCCCC2)CN2CCCC2CN2C(N)=NC[C@@H]2C)C(=N)N1CCc1cc(C(F)(F)F)cc(C(F)(F)F)c1 (stereo partly specified) | > 10 µg/mL | > 10 µg/mL | > 10 µg/mL | > 10 µg/mL | < 2.5 µg/mL | < 2.5 µg/mL
8 | C[C@H]1CN=C(N)N1CC1CCCN1C[C@H](CC1CCCCC1)N1C[C@@H](CC2CCCCC2)N(CCc2cc(C(F)(F)F)cc(C(F)(F)F)c2)C1=N (stereo partly specified) | > 10 µg/mL | < 2.5 µg/mL | > 10 µg/mL | > 10 µg/mL | < 2.5 µg/mL | < 2.5 µg/mL
9 | CCCC[C@@H]1CN([C@@H](CC2CCCCC2)CN2CCCC2CN2C(N)=NC[C@@H]2C)C(=N)N1CCc1cc(C(F)(F)F)cc(C(F)(F)F)c1 (stereo partly specified) | > 10 µg/mL | > 10 µg/mL | > 10 µg/mL | > 10 µg/mL | 2.5 µg/mL (≈ 3.65 µM) | 2.5 µg/mL (≈ 3.65 µM)
10 | CC(C)Cc1ccc(C(C)CN2C(=N)N([C@@H](CC3CCCCC3)CN3CCCC3CN3C(N)=NC[C@@H]3C)C[C@@H]2CC2CCCCC2)cc1 (stereo partly specified) | > 10 µg/mL | < 2.5 µg/mL | 5 µg/mL (≈ 7.58 µM) | 5 µg/mL (≈ 7.58 µM) | 2.5 µg/mL (≈ 3.79 µM) | < 2.5 µg/mL
11 | C[C@H]1CN=C(N)N1CC1CCCN1C[C@@H](Cc1ccc2ccccc2c1)N1C[C@@H](CC2CCCCC2)N(CCc2cc(C(F)(F)F)cc(C(F)(F)F)c2)C1=N (stereo partly specified) | < 2.5 µg/mL | < 2.5 µg/mL | > 10 µg/mL | > 10 µg/mL | < 2.5 µg/mL | < 2.5 µg/mL
